From patent publication US20250034097A1, “MICROBIOCIDAL ISONICOTINIC AMIDE DERIVATIVES” (SYNGENTA CROP PROTECTION AG, priority 2021, published 2025)

Key:
[1] = test system: Glomerella lagenarium; experiment: Glomerella lagenarium syn Colletotrichum lagenarium (anthracnose), growth inhibition in nutrient broth; assay type: cell-based; conditions: Colletotrichum orbiculare, PDB broth, 24° C., 72 hours, photometric at 620 nm, compared to untreated control
Procedure: (§1) Conidia of the fungus from cryogenic storage were directly mixed into nutrient broth (PDB potato dextrose broth). A DMSO solution of the test compounds was placed into a microtiter plate (96-well format) and the nutrient broth containing the fungal spores was added to it. The test plates were incubated at 24° C. and the inhibition of growth was determined photometrically after 72 hours at 620 nm.

[2] = test system: Pyrenophora teres; experiment: Pyrenophora teres (net blotch of barley), barley leaf segments, preventive; assay type: in vivo; conditions: 200 ppm, assessed 4 dpi, compared to untreated control
Procedure: Barley leaf segments are placed on agar in multiwell plates (24-well format) and sprayed with test solutions. After drying, the leaf disks are inoculated with a spore suspension of the fungus. After appropriate incubation, the activity of a compound is assessed 4 dpi (days after inoculation) as preventive fungicidal activity.

[3] = test system: Alternaria solani; experiment: Alternaria solani (early blight of tomato), tomato leaf disks, preventive; assay type: in vivo; conditions: 200 ppm, assessed 4 dpi, compared to untreated control
Procedure: Alternaria solani (Early Blight of Tomato) Tomato leaf disks are placed on water agar in multiwell plates (24-well format) and sprayed with test solutions. After drying, the leaf disks are inoculated with a spore suspension of the fungus. After appropriate incubation the activity of a compound is assessed 4 dpi (days post inoculation) as preventive fungicidal activity.

[4] = test system: Sclerotinia sclerotiorum; experiment: Sclerotinia sclerotiorum (cottony rot, white mold), growth inhibition in nutrient broth; assay type: cell-based; conditions: 20 ppm; PDB broth, 24° C., 72 hours, photometric at 620 nm; compared to untreated control
Procedure: as §1, with “Mycelial fragments” for “Conidia”, “fungus prepared” for “fungus”, “a fresh liquid culture” for “cryogenic storage”

[5] = test system: Monographella nivalis; experiment: Monographella nivalis syn. Microdochium nivale (snow mould, foot rot), growth inhibition in nutrient broth; assay type: cell-based; conditions: "at ppm" (concentration not given); PDB broth, 24° C., 72 hours, photometric at 620 nm; compared to untreated control
Procedure: as §1

| SMILES | inhibition of growth at 20 ppm [1] | also measured |
| --- | --- | --- |
| Cc1ncc(Oc2cccc(C3CC3)c2)c(C(=O)NCCc2ccc(Cl)cc2Cl)n1 [Compound 1.1, 5-(3-cyclopropylphenoxy)-N-[2-(2,4-dichlorophenyl)ethyl]-2-methyl-pyrimidine-4-carboxamide] | ≥ 80% | – |
| Cc1ncc(Oc2cccc(C3CC3)c2)c(C(=O)NCC(F)c2ccc(Cl)cc2Cl)n1 (centres unmarked) [Compound 1.2, 5-(3-cyclopropylphenoxy)-N-[2-(2,4-dichlorophenyl)-2-fluoro-ethyl]-2-methyl-pyrimidine-4-carboxamide] | ≥ 80% | control of Pyrenophora teres [2]: at least 80%; control of Alternaria solani [3]: at least 80%; control of Sclerotinia sclerotiorum [4]: at least 80%; control of Monographella nivalis [5]: at least 80% |
| Cc1nncc(Oc2cccc(C3CC3)c2)c1C(=O)NCC(F)c1ccc(Cl)cc1Cl (centres unmarked) [Compound 2.1, 5-(3-cyclopropylphenoxy)-N-[2-(2,4-dichlorophenyl)-2-fluoro-ethyl]-3-methyl-pyridazine-4-carboxamide] | ≥ 80% | – |
| CC(C)Oc1nncc(Oc2cccc(C3CC3)c2)c1C(=O)NCC(F)c1ccc(Cl)cc1Cl (centres unmarked) [Compound 2.4, 5-(3-cyclopropylphenoxy)-N-[2-(2,4-dichlorophenyl)-2-fluoro-ethyl]-3-isopropoxy-pyridazine-4-carboxamide] | ≥ 80% | – |
| C=C(C)COc1nncc(Oc2cccc(C3CC3)c2)c1C(=O)NCC(F)c1ccc(Cl)cc1Cl (centres unmarked) [Compound 2.5, 5-(3-cyclopropylphenoxy)-N-[2-(2,4-dichlorophenyl)-2-fluoro-ethyl]-3-(2-methylallyloxy)pyridazine-4-carboxamide] | ≥ 80% | – |
| O=C(NCC(F)c1ccc(Cl)cc1Cl)c1c(Oc2cccc(C3CC3)c2)cnnc1C#CC1CC1 (centres unmarked) [Compound 2.6, 3-(2-cyclopropylethynyl)-5-(3-cyclopropylphenoxy)-N-[2-(2,4-dichlorophenyl)-2-fluoro-ethyl]pyridazine-4-carboxamide] | ≥ 80% | – |
| C=C(C)c1nncc(Oc2cccc(C3CC3)c2)c1C(=O)NCC(F)c1ccc(Cl)cc1Cl (centres unmarked) [Compound 2.7, 5-(3-cyclopropylphenoxy)-N-[2-(2,4-dichlorophenyl)-2-fluoro-ethyl]-3-isopropenyl-pyridazine-4-carboxamide] | ≥ 80% | – |
| O=C(NCC(F)c1ccc(Cl)cc1Cl)c1c(Oc2cccc(C3CC3)c2)cnnc1C1CC1 (centres unmarked) [Compound 2.8, 3-cyclopropyl-5-(3-cyclopropylphenoxy)-N-[2-(2,4-dichlorophenyl)-2-fluoro-ethyl]pyridazine-4-carboxamide] | ≥ 80% | – |
| CC(C)c1nncc(Oc2cccc(C3CC3)c2)c1C(=O)NCC(F)c1ccc(Cl)cc1Cl (centres unmarked) [Compound 2.9, 5-(3-cyclopropylphenoxy)-N-[2-(2,4-dichlorophenyl)-2-fluoro-ethyl]-3-isopropyl-pyridazine-4-carboxamide] | ≥ 80% | – |
| O=C(NCC(F)c1ccc(Cl)cc1Cl)c1cnncc1Oc1cccc(C2CC2)c1 (centres unmarked) [Compound 2.10, 5-(3-cyclopropylphenoxy)-N-[2-(2,4-dichlorophenyl)-2-fluoro-ethyl]pyridazine-4-carboxamide] | ≥ 80% | – |
| COc1nncc(Oc2cccc(C3CC3)c2)c1C(=O)NCCc1ccc(Cl)cc1Cl [Compound 2.12, 5-(3-cyclopropylphenoxy)-N-[2-(2,4-dichlorophenyl)ethyl]-3-methoxy-pyridazine-4-carboxamide] | ≥ 80% | – |
| O=C(NCC(F)c1ccc(Cl)cc1Cl)c1c(Oc2cccc(C3CC3)c2)cnnc1O (centres unmarked) [Compound 2.15, 5-(3-cyclopropylphenoxy)-N-[2-(2,4-dichlorophenyl)-2-fluoro-ethyl]-3-hydroxy-pyridazine-4-carboxamide] | ≥ 80% | – |
| CC(C)c1nncc(Oc2cccc(C3CC3)c2)c1C(=O)NC[C@H](F)c1ccc(Cl)cc1Cl [Compound 2.16, 5-(3-cyclopropylphenoxy)-N-[(2R)-2-(2,4-dichlorophenyl)-2-fluoro-ethyl]-3-isopropyl-pyridazine-4-carboxamide] | ≥ 80% | – |
